Key:
[1] = tested on: NCI-H23 cells (KRAS G12C mutant cell line); experiment: Proliferation experiment of NCI-H23 cells (Cell Titer-Glo); format: cell-based; settings: Homo sapiens, 72 hours, read-out: Test Example 2 IC50
Description: Human lung cancer cell line NCI-H23 (ATCC, CRL-5800) was a KRAS G12C mutant cell line.
(§1) According to the solution described in Cell Titer-Glo Luminescent cell Viability Assay (Promega catalog number #G7570) of Promega Corporation, the number of living cells in the culture was detected. 90 μL of cells (8,000 cells/well) were cultured in a growth medium in a Corning black transparent bottom 96-well plate and were cultured overnight in a 5% CO2 humidified incubator at 37° C. The compound diluted serially in 100% DMSO was added to the cells by a pipette, and the cells were cultured for another 72 hours. 100 μL of the well-mixed Cell Titer-Glo reagent was added to the cells in the 96-well culture plate to lyse the cells and gently mixed. Subsequently, […] was detected on an Envision microplate detector, and the data of each compound was obtained. Finally, the data was input into a suitable software package (such as Prism) for curve fitting analysis.

[2] = molecular target: Ba/F3 (KRAS-G12C-Q99L) cells (Homo sapiens, UniProt P01116, G12C/Q99L, cells depend on it); experiment: Proliferation experiment of Ba/F3 (KRAS-G12C-Q99L) cells; format: cell-based; settings: 72 hours, Cell Titer-Glo, read-out: Test Example 6 IC50
Description: Engineered cell strain Ba/F3 (KRAS-G12C-Q99L) was a cell strain constructed by the inventors according to the methods described in Warmuth M. et al, Curr Opin Oncol. […] The cells were grown at 37° C. in a humidified incubator with 5% CO2.
as §1, with “(3,000” for “(8,000”

[3] = molecular target: Ba/F3 (KRAS-G12C-H95Q) cells (Homo sapiens, UniProt P01116, G12C/H95Q, cells depend on it); experiment: Proliferation experiment of Ba/F3 (KRAS-G12C-H95Q) cells; format: cell-based; settings: 72 hours, Cell Titer-Glo, read-out: Test Example 4 IC50
Description: Engineered cell strain Ba/F3 (KRAS-G12C-H95Q) was a cell strain constructed by the inventors according to the methods described in Warmuth M. et al, Curr Opin Oncol. […] The cells were grown at 37° C. in a humidified incubator with […].
as §1, with “(3,000” for “(8,000”

[4] = molecular target: Ba/F3 (KRAS-G12C-Y96C) cells (Homo sapiens, UniProt P01116, G12C/Y96C, cells depend on it); experiment: Proliferation experiment of Ba/F3 (KRAS-G12C-Y96C) cells; format: cell-based; settings: 72 hours, Cell Titer-Glo, read-out: Test Example 3 IC50
Description: Engineered cell strain Ba/F3 (KRAS-G12C-Y96C) was a cell strain constructed by the inventors according to the methods described in Warmuth M. et al, Curr Opin Oncol. […] The cells were grown at 37° C. in a humidified incubator with […].
as §1, with “(3,000” for “(8,000”, “[…]” for “5%”

[5] = In vitro human liver microsome stability experiment; format: in vitro ADME; settings: human liver microsomes; for half-life / microsomal CLint: 1 mg/mL microsome protein, NADPH, 37° C.; for microsomal CLint: read-out: CLint(mic); for CLint scaled: scaled to liver
Description: Eight 96-well incubation plates were prepared, named [NT], Blank60, and NCF60, respectively. […] No compound to be tested or control compound was added to the Blank60 plate and samples were taken after 60 minutes of incubation. The NCF60 plate, in which a potassium phosphate buffer was used instead of an NADPH regeneration system solution (Sigma, N0505), was incubated for 60 minutes. […] Only the working solution of microsomes was added to the Blank60 plate, and the incubation plates Blank60, T5, T15, T30, T45, and T60 except TO and NCF60 were then placed in a water bath at 37° C. for pre-incubation for about 10 minutes. To the TO plate sample, 600 μL of a stop solution (acetonitrile:methanol (95:5, v/v) solution containing 100 ng/mL tolbutamide (Sigma, T0891)) was added first, and then an NADPH regeneration system working solution was added. 98 μL of a potassium phosphate buffer was added to each well of the NCF60 plate and incubated for 60 minutes. After the pre-incubation in the incubation plates Blank60, T5, T15, T30, T45, and T60 was complete, 98 μL of the NADPH regeneration system working solution was added to each sample well to initiate the reaction. After an appropriate incubation time (such as 5, 15, 30, 45, and 60 minutes), 600 μL of the stop solution was added to each sample well and control sample well in the Blank60, […] the reaction. All the sample plates were shaken evenly and centrifuged at 3220×g for 20 minutes. 200 μL of each test sample supernatant was taken and diluted into 200 μL of an aqueous solution containing 0.3% formic acid for LC-MS/MS analysis, and 100 μL of the control sample supernatant was taken and diluted into 300 μL of pure water for LC-MS/MS analysis. Calculations were carried out according to the following formulas: […]

[6] = molecular target: Ba/F3 (KRAS-G12C-R68S) cells (Homo sapiens, UniProt P01116, G12C/R68S, cells depend on it); experiment: Proliferation experiment of Ba/F3 (KRAS-G12C-R68S) cells; format: cell-based; settings: 72 hours, Cell Titer-Glo, read-out: Test Example 5 IC50
Description: Engineered cell strain Ba/F3 (KRAS-G12C-R68S) was a cell strain constructed by the inventors according to the methods described in Warmuth M. et al, Curr Opin Oncol. […] The cells were grown at 37° C. in a humidified incubator with 5% CO2.
as §1, with “(3,000” for “(8,000”

[7] = tested on: NCI-H358 cells (KRAS G12C mutant cell line); experiment: Proliferation experiment of NCI-H358 cells (Cell Titer-Glo); format: cell-based; settings: Homo sapiens, 72 hours, read-out: Test Example 1 IC50
Description: as §1

Sequence of Ba/F3 (KRAS-G12C-R68S) cells (P01116 whole entry G12C/R68S): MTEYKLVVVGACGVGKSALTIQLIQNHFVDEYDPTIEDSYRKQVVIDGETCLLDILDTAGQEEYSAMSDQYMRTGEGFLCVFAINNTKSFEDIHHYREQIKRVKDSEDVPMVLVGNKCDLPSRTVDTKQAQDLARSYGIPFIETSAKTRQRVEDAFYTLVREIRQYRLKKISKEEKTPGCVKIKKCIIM
Sequence of Ba/F3 (KRAS-G12C-H95Q) cells (P01116 whole entry G12C/H95Q): as the sequence (P01116 whole entry G12C/R68S) above, with S68R, H95Q counted along it
Sequence of Ba/F3 (KRAS-G12C-Q99L) cells (P01116 whole entry G12C/Q99L): as the sequence (P01116 whole entry G12C/R68S) above, with S68R, Q99L counted along it
Sequence of Ba/F3 (KRAS-G12C-Y96C) cells (P01116 whole entry G12C/Y96C): as the sequence (P01116 whole entry G12C/R68S) above, with S68R, Y96C counted along it

Row | IC50 [1] | GI50 [2] | GI50 [3] | GI50 [4] | half-life [5] | microsomal CLint [5] | CLint scaled [5] | GI50 [6] | IC50 [7] | SMILES
1 | 1.02 nM | 24.4 nM | 41.6 nM | 26.2 nM | 30.9 min | 56.2 µL/min/mg | 49.6 mL/min/kg | 51.4 nM | 0.66 nM | C#Cc1c(F)ccc2cc(O)cc(-c3ccc4c(N5CCN(C(=O)C(=C)F)[C@@H](CC#N)C5)nc(OCC56CCCN5CCC6)nc4c3F)c12 [Compound 12, (S)-2-(4-(7-(8-ethynyl-7-fluoro-3-hydroxynaphth-1-yl)-8-fluoro-2-((tetrahydro-1H-pyrrolizin-7a(5H)-yl)methoxy)quinazolin-4-yl)-1-(2-fluoroacryloyl)piperazin-2-yl)acetonitrile]
2 | 0.68 nM | 8.92 nM | 12.8 nM | 4.89 nM | 44.2 min | 35.6 µL/min/mg | 33 mL/min/kg | 29.9 nM | 0.5 nM | C#Cc1cccc2cccc(-c3c(F)cc4c(N5CCN(C(=O)C(=C)F)[C@@H](CC#N)C5)nc(OCC56CCCN5CCC6)nc4c3F)c12 [Compound 18B, 2-((2S)-4-(7-(8-ethynylnaphth-1-yl)-6,8-difluoro-2-((tetrahydro-1H-pyrrolizin-7a(5H)-yl)methoxy)quinazolin-4-yl)-1-(2-fluoroacryloyl)piperazin-2-yl)acetonitrile]
3 | 0.86 nM | 56.7 nM | 62.6 nM | 25.7 nM | 38.8 min | 35.7 µL/min/mg | 32.1 mL/min/kg | 69.4 nM | 0.79 nM | C#Cc1cccc2cccc(-c3ccc4c(N5CCN(C(=O)C(=C)F)[C@@H](CC#N)C5)nc(OCC56CCCN5CCC6)nc4c3F)c12 [Compound 11, (S)-2-(4-(7-(8-ethynylnaphth-1-yl)-8-fluoro-2-((tetrahydro-1H-pyrrolizin-7a(5H)-yl)methoxy)quinazolin-4-yl)-1-(2-fluoroacryloyl)piperazin-2-yl)acetonitrile]
4 | 0.76 nM | 11.1 nM | 23.9 nM | 7.23 nM | 39.2 min | 35.6 µL/min/mg | 33 mL/min/kg | 34.1 nM | 0.47 nM | C=C(F)C(=O)N1CCN(c2nc(OCC34CCCN3CCC4)nc3c(F)c(-c4cc(O)cc5cccc(Cl)c45)c(F)cc23)C[C@@H]1CC#N [Compound 22A, 2-((2S)-4-(7-(8-chloro-3-hydroxynaphth-1-yl)-6,8-difluoro-2-((tetrahydro-1H-pyrrolizin-7a(5H)-yl)methoxy)quinazolin-4-yl)-1-(2-fluoroacryloyl)piperazin-2-yl)acetonitrile]
5 | 1.15 nM | 9.06 nM | 39.4 nM | 5.2 nM | 25.5 min | 54.3 µL/min/mg | 48.9 mL/min/kg | 50.6 nM | 0.44 nM | C#Cc1c(F)ccc2cc(O)cc(-c3ccc4c(N5CCN(C(=O)C(=C)F)[C@@H](CC#N)C5)nc(OC[C@@]56CCCN5C[C@H](F)C6)nc4c3F)c12 [Compound 4]
6 | 0.6 nM | 9.03 nM | 16.8 nM | 5.28 nM | 38.4 min | 36.1 µL/min/mg | 32.5 mL/min/kg | 34.6 nM | 0.62 nM | C#Cc1cccc2cc(O)cc(-c3c(F)cc4c(N5CCN(C(=O)C(=C)F)[C@@H](CC#N)C5)nc(OCC56CCCN5CCC6)nc4c3F)c12 [Compound 7A, 2-((2S)-4-(7-(8-ethynyl-3-hydroxynaphth-1-yl)-6,8-difluoro-2-((tetrahydro-1H-pyrrolizin-7a(5H)-yl)methoxy)quinazolin-4-yl)-1-(2-fluoroacryloyl)piperazin-2-yl)acetonitrile]
7 | 0.65 nM | 130 nM | 70.1 nM | 18.9 nM | 18.8 min | 73.7 µL/min/mg | 66.3 mL/min/kg | 93.9 nM | 0.22 nM | C=C(F)C(=O)N1CCN(c2nc(OC[C@@]34CCCN3C[C@H](F)C4)nc3c(F)c(-c4cc(O)cc5cccc(Cl)c45)ccc23)C[C@@H]1CC#N [Compound 2]
8 | 0.52 nM | 4 nM | 7.6 nM | 4 nM | 17.1 min | 81.3 µL/min/mg | 73.2 mL/min/kg | 5.5 nM | 0.25 nM | C#Cc1c(F)ccc2cc(O)cc(-c3c(F)cc4c(N5CCN(C(=O)C(=C)F)[C@@H](CC#N)C5)nc(OC[C@@]56CCCN5C[C@H](F)C6)nc4c3F)c12 [Compound 24A, 2-((2S)-4-(7-(8-ethynyl-7-fluoro-3-hydroxynaphth-1-yl)-6,8-difluoro-2-(((2R,7aS)-2-fluorotetrahydro-1H-pyrrolizin-7a(5H)-yl)methoxy)quinazolin-4-yl)-1-(2-fluoroacryloyl)piperazin-2-yl)acetonitrile]

Source: patent US20250154156A1, “QUINAZOLINE DERIVATIVE AS KRAS G12C MUTATION INHIBITOR” (Shenzhen Forward Pharmaceuticals Co., Limited, priority 2022, published 2025)
